Among the test systems are HT-29; MDA-MB-231; UO-31; MDA-MB-435; SF-295; EKVX; SK-MEL-5; MDA-N; SK-MEL-2; NCI-H460; SW-620; NCI-H522; Hs-578T; COLO 205; TK-10; OVCAR-4; UACC-62; SK-OV-3; M14; RXF 393.
Holding throughout (experiment): NCI-60 cell line screen, 48 h

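96-well plates; 48 h exposure; 5 concentrations. Endpoints by linear interpolation between flanking doses. Not reached: highest tested concentration assigned. GI50 = concentration required for 50% inhibition of growth.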 Calls of active or inactive are those of the source. No stated cut-off is given here; in the data, active = GI50 up to about 1.1 µM and inactive = higher.

On to `OCC1(CNc2cc(Cl)ncn2)CCC1`, for which the GI50 with HT-29, in the assay with MDA-MB-231, in the assay on UO-31, with MDA-MB-435, with SF-295 and with EKVX was > 100 µM (inactive) in each case. The GI50 in the assay with SK-MEL-5, in the assay on MDA-N, with SK-MEL-2, in the assay on NCI-H460, with SW-620 and in the assay with NCI-H522 was > 100 µM (inactive) each time. Moreover, the GI50 with Hs-578T, with COLO 205, in the assay with TK-10 and in the assay with OVCAR-4 was > 100 µM (inactive) in each case.
As to `O=C(OCC1OC2OC(c3ccccc3)(n3ccc4c([N+](=O)[O-])ccnc43)OC2C1OC(=O)c1ccccc1)c1ccccc1` (stereo not given), the GI50 with UACC-62, in the assay with HT-29, with MDA-MB-231, with UO-31, in the assay with MDA-MB-435 and in the assay on SF-295 was > 100 µM (inactive) throughout. Moreover, the GI50 in the assay on EKVX, in the assay on SK-MEL-5, in the assay with SK-OV-3, with MDA-N, in the assay with SK-MEL-2 and in the assay on NCI-H460 was > 100 µM (inactive) throughout. The GI50 in the assay on SW-620 is > 100 µM (inactive); in the assay with Hs-578T, 64.7 µM (inactive); in the assay on TK-10, > 100 µM (inactive); with OVCAR-4 it was > 100 µM (inactive); in the assay on M14, > 100 µM (inactive).
Consider `Cc1cc(S(=O)(=O)Nc2nc(N)n[nH]2)c(SCC(=O)O)cc1Cl`, for which the GI50 with HT-29, in the assay with UO-31, in the assay on SF-295, in the assay on EKVX, in the assay on SK-MEL-5 and in the assay on SK-OV-3 was > 10 µM (inactive) throughout. The GI50 in the assay on MDA-N, with RXF 393, in the assay on SK-MEL-2, in the assay with NCI-H460, in the assay on SW-620 and with NCI-H522 was > 10 µM (inactive) in each case. The GI50 in the assay on Hs-578T, in the assay on COLO 205, in the assay on TK-10, with OVCAR-4 and in the assay on M14 was > 10 µM (inactive) each time.
Take `CC1(C)CC2C(=O)c3ccccc3NC2c2ccccc21` (stereo not given): the GI50 in the assay on UACC-62 was 3.9 µM (inactive); in the assay with HT-29, 3.48 µM (inactive); with UO-31, 6.03 µM (inactive); with MDA-MB-435 it was 0.326 µM (active); with SF-295 it was 1.84 µM (inactive); with EKVX it was 43.2 µM (inactive). The GI50 was 3.5 µM (inactive) in the assay with SK-MEL-5; 0.32 µM (active) in the assay with MDA-N; 1.87 µM (inactive) in the assay with RXF 393; 3.12 µM (inactive) in the assay with NCI-H460; 3.9 µM (inactive) in the assay with SW-620; 1.53 µM (inactive) in the assay on NCI-H522. The GI50 with Hs-578T is 2.87 µM (inactive); in the assay on COLO 205, 3.44 µM (inactive); in the assay with TK-10, 12 µM (inactive); in the assay on OVCAR-4, 57 µM (inactive); with M14, 5.28 µM (inactive).
On to `O=C1/C(=C/c2ccc(OC(=O)c3ccc(Cl)cc3)cc2)CCC/C1=C\c1ccc(OC(=O)c2ccc(Cl)cc2)cc1`, for which the GI50 with UACC-62 is > 100 µM (inactive); in the assay on HT-29 it was > 100 µM (inactive); in the assay on MDA-MB-231, 46.5 µM (inactive); with UO-31, > 100 µM (inactive); with MDA-MB-435 it was > 100 µM (inactive); with EKVX, > 100 µM (inactive). In addition, the GI50 in the assay on SK-MEL-5, with MDA-N, with SK-MEL-2, in the assay on NCI-H460, in the assay with SW-620 and in the assay with NCI-H522 was > 100 µM (inactive) throughout. The GI50 was 23.8 µM (inactive) with Hs-578T; > 100 µM (inactive) in the assay on COLO 205; 94.8 µM (inactive) in the assay on TK-10; > 100 µM (inactive) in the assay with OVCAR-4; > 100 µM (inactive) in the assay on M14.
With `COc1cc(C(=O)NNC(=O)c2cc(Br)ccc2NC(=O)c2cccs2)cc(OC)c1OC`, the GI50 in the assay on UACC-62 was 16.7 µM (inactive); in the assay on HT-29, 19.5 µM (inactive); in the assay with UO-31, 14.4 µM (inactive); in the assay on MDA-MB-435, 19.8 µM (inactive); in the assay on SF-295, 19.1 µM (inactive); with EKVX, 6.65 µM (inactive). Also, the GI50 in the assay on SK-MEL-5 is 13.8 µM (inactive); in the assay on SK-OV-3, 9.16 µM (inactive); in the assay on MDA-N it was 24.8 µM (inactive); in the assay on RXF 393 it was 13.1 µM (inactive); in the assay with SK-MEL-2 it was 18.6 µM (inactive); in the assay with NCI-H460, 20.2 µM (inactive). For the same compound, the GI50 in the assay with SW-620 was 28.1 µM (inactive); in the assay with NCI-H522 it was 20.7 µM (inactive); in the assay with Hs-578T, 20.9 µM (inactive); with COLO 205, 12.9 µM (inactive); with TK-10, 25.3 µM (inactive); in the assay with OVCAR-4 it was 12 µM (inactive). The GI50 in the assay on M14 is 19.3 µM (inactive).
For the compound `CCOC(=O)C(=[N+]=[N-])C(=O)C1(C(=O)OCC)CCN(C(=O)c2ccccc2)C1=O` (stereo not given), the GI50 in the assay on UACC-62, in the assay with HT-29, with MDA-MB-231, in the assay on UO-31, with SF-295 and with EKVX was > 100 µM (inactive) each time. For the same compound, the GI50 in the assay on SK-MEL-5, with SK-OV-3, in the assay with MDA-N, in the assay on RXF 393, in the assay with SK-MEL-2 and in the assay with NCI-H460 was > 100 µM (inactive) each time. The GI50 with NCI-H522, in the assay with Hs-578T, in the assay on COLO 205, in the assay with TK-10, in the assay with OVCAR-4 and in the assay with M14 was > 100 µM (inactive) in each case.
As for `COc1ccc(C(=O)N2CCN(c3ccc4[nH]c(=O)oc4c3)CC2)cc1`, the GI50 in the assay on UACC-62 was 99.3 µM (inactive); in the assay with HT-29, > 100 µM (inactive); in the assay on MDA-MB-231, > 100 µM (inactive); with UO-31, > 100 µM (inactive); with MDA-MB-435, > 100 µM (inactive); in the assay on SF-295, > 100 µM (inactive). Further, the GI50 in the assay on EKVX was 78.7 µM (inactive); with SK-MEL-5, > 100 µM (inactive); with SK-OV-3 it was > 100 µM (inactive); in the assay on MDA-N, > 100 µM (inactive); in the assay on SK-MEL-2, > 100 µM (inactive); in the assay with NCI-H460 it was > 100 µM (inactive). For the same compound, the GI50 in the assay with SW-620 was > 100 µM (inactive); with NCI-H522, 53.1 µM (inactive); in the assay with Hs-578T, 58.5 µM (inactive); in the assay on COLO 205, > 100 µM (inactive); in the assay with TK-10, > 100 µM (inactive); in the assay with OVCAR-4 it was 84.1 µM (inactive). Moreover, the GI50 with M14 is > 100 µM (inactive).
Take `CC(C)(C)NCc1cc(C(C)(C)C)cc(-c2ccc(Cl)cc2)c1O`: the GI50 in the assay on UACC-62 was 13.7 µM (inactive); in the assay on HT-29, 17.9 µM (inactive); in the assay with MDA-MB-231, 11.2 µM (inactive); in the assay with UO-31, 2.82 µM (inactive); in the assay with MDA-MB-435, 12.6 µM (inactive); in the assay with SF-295 it was 17.3 µM (inactive). The GI50 with EKVX was 12.7 µM (inactive); with SK-MEL-5 it was 16.2 µM (inactive); with SK-OV-3, 17.1 µM (inactive); with MDA-N, 16.1 µM (inactive); with SK-MEL-2, 18.4 µM (inactive); in the assay with NCI-H460, 12.5 µM (inactive). For the same compound, the GI50 in the assay on NCI-H522 was 11 µM (inactive); in the assay on Hs-578T it was 13.3 µM (inactive); in the assay on COLO 205, 10.7 µM (inactive); in the assay with TK-10, 12 µM (inactive); in the assay on OVCAR-4, 16.5 µM (inactive); with M14, 15 µM (inactive).
Consider `CCOC(=O)c1ccc(-c2cc(C)[nH]n2)[nH]1`, for which the GI50 in the assay with UACC-62, in the assay on HT-29, with MDA-MB-231, with UO-31, with MDA-MB-435 and in the assay with SF-295 was > 100 µM (inactive) throughout. The GI50 in the assay with EKVX was 54.1 µM (inactive); with SK-MEL-5 it was > 100 µM (inactive); in the assay on SK-OV-3, > 100 µM (inactive); with MDA-N it was > 100 µM (inactive); in the assay with RXF 393, > 100 µM (inactive); with SK-MEL-2, > 100 µM (inactive). Besides, the GI50 with NCI-H460, in the assay with SW-620, in the assay on NCI-H522, in the assay with COLO 205, with TK-10 and with OVCAR-4 was > 100 µM (inactive) each time. In addition, the GI50 in the assay on M14 was > 100 µM (inactive).
In the case of `Cc1ccc(S(=O)(=O)N2C3C=CC(C3)[C@@H]2C(Cl)(Cl)Cl)cc1` (stereo not given in full), the GI50 in the assay on UACC-62 was 14.6 µM (inactive); with HT-29 it was 11.8 µM (inactive); with MDA-MB-231 it was 12.5 µM (inactive); with UO-31, 15 µM (inactive); in the assay on MDA-MB-435 it was 27 µM (inactive); with SF-295, 13.6 µM (inactive). Also, the GI50 in the assay on EKVX was 5.22 µM (inactive); in the assay on SK-MEL-5, 19.3 µM (inactive); in the assay on MDA-N it was 35 µM (inactive); with SK-MEL-2, 7.36 µM (inactive); with NCI-H460, 6.75 µM (inactive); with SW-620, 20 µM (inactive). The GI50 is 14 µM (inactive) in the assay with NCI-H522; 5.07 µM (inactive) in the assay with Hs-578T; 20.6 µM (inactive) in the assay on COLO 205; 18.7 µM (inactive) in the assay on TK-10; 15.2 µM (inactive) with OVCAR-4; 14.4 µM (inactive) in the assay on M14.

These data come from ChEMBL document CHEMBL1201862, “PubChem BioAssay data set” (2004).
